Experimental data as given in paper PMC7074166, “Screening for Small Molecule Modulators of Trypanosoma brucei Hsp70 Chaperone Activity Based upon Alcyonarian Coral-Derived Natural Products” (Marine Drugs, 2020).
Where two headings read alike, the source gives them in different places.

Legend:
[1] = system: bloodstream form T. b. brucei parasites; experiment: Resazurin-based anti-trypanosomal assay on bloodstream form T. b. brucei parasites; assay type: cell-based, Trypanosoma brucei brucei; settings: Trypanosoma brucei
Protocol: Bloodstream form T. b. brucei Lister 927 variant 221 strain parasites were cultured in filter sterilized complete Iscoves Modified Dulbeccos Media (IMDM) based HM1-9 medium (IMDM base powder, […] sodium bicarbonate, 1 mM hypoxanthine, 1 mM sodium pyruvate, 0.16 mM thymidine, 0.05 mM bathocuprone sulphate acid, 10% (v/v) heat inactivated foetal bovine serum, 1.5 mM L-cysteine, 0.2 mM β-mercaptoethanol, pH 7.5) in a humidified chamber at 37 °C with an atmosphere of 5% CO2. Parasite growth was monitored using a Neubauer haemocytometer to count the cell number, after which cells were diluted, according to their density, in the described pre-warmed media.
All compounds of interest were resuspended to stocks of 30 mM in DMSO and stored at −80 °C prior to use in in vitro experiments. For assessment of anti-trypanosomal activity, compounds were added to in vitro cultures of bloodstream form T. b. brucei parasites (1 × 10^5 cells/mL) in 96-well plates at a fixed concentration of 20 μM. After an incubation period of 48 h, the number of parasites surviving drug exposure were determined using a resazurin-based cytotoxicity assay. Resazurin is an oxidation–reduction sensitive dye that is reduced by living cells to resorufin. Resorufin is a fluorophore (Excitation560/Emission590) and thus was quantified in a multi-well fluorescence plate reader. Results are expressed as % parasite viability—the resorufin fluorescence in small molecule-treated wells relative to untreated controls. Assessment of each small molecule was conducted in duplicate, with error bars representing standard deviation (SD). […] The compounds were added to in vitro cultures of bloodstream form T. b. brucei parasites (1 × 10^5 cells/mL) in 96-well plates in a 3-fold dilution series with 100 μM as the highest concentration. After an incubation period of 48 h, the number of parasites surviving drug exposure were determined as previously mentioned. The % parasite viability was determined as previously mentioned. The IC50 (the concentration of compound required to decrease cell viability of T. b. brucei parasites by 50% compared to those grown in the absence of the compound) values for each of the compounds were determined from a dose–response curve by non-linear regression generated using GraphPad Prism® (v. 7.0; San Diego, CA, USA) software. For comparative purposes, pentamidine at a fixed concentration of 1 μM was employed as a drug standard.

TbHsp70 / Tbj2 = biological target: T1, TbHsp70 / Tbj2 (Trypanosoma brucei brucei, UniProt P11145); experiment: Tbj2-stimulated ATPase activity assay, TbHsp70; assay type: biochemical; settings: TbHsp70, 150 μM, Figure 5A
T1 construct: His-tag; made in house; host or cells: Escherichia coli (Tbj2: E. coli BL21 (DE3))
Protocol: (§1) The determination of the ATPase activity of the Hsp70 proteins was performed using the high throughput colorimetric ATPase assay kit (Innova Biosciences, Cambridge, UK). This method enables the quantification of the inorganic phosphate (Pi) released from ATP hydrolysis by an enzyme. Briefly, the molecular chaperones were prepared in ATPase assay buffer (100 mM Tris-HCl, 7.5, 2 mM MgCl2, 50 mM KCl, 0.5 mM DTT) and incubated with ATP (0–2 mM) for 1 h at 37 °C. […] The samples containing Pi hydrolysed from ATP were incubated with the PiColorLock™ solution, which is a malachite green dye solution that in the presence of Pi changes absorbance due to generation of molybdate-phosphate complexes. The absorbance was measured at 595 nm using a Powerwave 96-well plate reader (BioTek Instruments, Inc., Winooski, VT, USA), and absorbance values were converted to phosphate concentrations using a standard curve of absorbance vs. phosphate concentration based on a set of Pi standards provided by the supplier assayed along with the samples. All samples were corrected for spontaneous breakdown of ATP observed in a control experiment in the absence of protein. The trypanosomal and human Hsp70s were used at 0.8 μM, and the J-proteins were used at 0.4 μM. An initial screen of the modulatory effects of the compounds on the ATPase activity of the Hsp70s was conducted using 300 μM of the compounds. Compounds identified to have a modulatory effect on the basal and J-protein-stimulated ATPase activity of Hsp70 were used at varying concentrations. The modulatory effect of the selected compounds on the basal and J-protein stimulated ATPase activity of the T. brucei Hsp70s was represented as fold change with the basal and J-protein stimulated ATPase activity of the Hsp70s taken as 1 respectively. These experiments were conducted on three independently purified batches of proteins, but due to limited availability of the selected compounds, each assay was conducted in duplicate on each batch of protein. In control reactions to evaluate the effect of DMSO on basal and J-protein stimulated ATPase activity of the Hsp70s, the solvent was added to a final concentration of 1% (v/v) in the assay. The assays were performed in duplicate on three independently purified batches of proteins.

TbHsp70.4 / Tbj2 = experiment: Tbj2-stimulated ATPase activity assay, TbHsp70.4; assay type: biochemical, Trypanosoma brucei; settings: TbHsp70.4, 150 μM, Figure 5B
Protocol: as §1

[2] = system: HeLa (human cervix adenocarcinoma) cells; experiment: Resazurin-based cytotoxicity assay on a mammalian cell line; settings: 20 μM, Figure S2
Protocol: HeLa cells were grown and maintained in a culture medium comprised of Dulbecco’s Modified Eagle’s Medium (DMEM) with 5 mM L-glutamine (Lonza, Basel, Switzerland), supplemented with 10% (v/v) heat inactivated foetal bovine serum and antibiotics (penicillin/streptomycin/fungizone-PSF) in a humidified chamber at 37 °C with an atmosphere of 5% CO2. To carry out passaging of cells, cultures were treated with 1% trypsin (w/v) to lift cells, which were then washed in 1 × phosphate buffered saline (PBS) before being re-seeded into culture flasks. For assessment of the cytotoxic effects, the small molecules were added to HeLa cells at a fixed concentration of 20 μM. After an incubation period of 24 h, the number of cells surviving drug exposure were determined using a resazurin-based cytotoxicity assay. The resazurin-based cytotoxicity assay was conducted as previously mentioned. Results were expressed as % cell—the resorufin fluorescence in small molecule-treated wells relative to untreated controls. Assessment of each small molecule was conducted in duplicate, with error bars representing standard deviation (SD).

[3] = T. b. brucei parasites, stated as bound, read-out: IC50 values
[4] = Table 1, T. b. brucei parasites cultured in vitro, 48 h, dose-response, read-out: IC50/μM
[5] = Table S1, 48 select compounds, T. b. brucei, 48 h, read-out: IC50/

T1 sequence (P11145 whole entry): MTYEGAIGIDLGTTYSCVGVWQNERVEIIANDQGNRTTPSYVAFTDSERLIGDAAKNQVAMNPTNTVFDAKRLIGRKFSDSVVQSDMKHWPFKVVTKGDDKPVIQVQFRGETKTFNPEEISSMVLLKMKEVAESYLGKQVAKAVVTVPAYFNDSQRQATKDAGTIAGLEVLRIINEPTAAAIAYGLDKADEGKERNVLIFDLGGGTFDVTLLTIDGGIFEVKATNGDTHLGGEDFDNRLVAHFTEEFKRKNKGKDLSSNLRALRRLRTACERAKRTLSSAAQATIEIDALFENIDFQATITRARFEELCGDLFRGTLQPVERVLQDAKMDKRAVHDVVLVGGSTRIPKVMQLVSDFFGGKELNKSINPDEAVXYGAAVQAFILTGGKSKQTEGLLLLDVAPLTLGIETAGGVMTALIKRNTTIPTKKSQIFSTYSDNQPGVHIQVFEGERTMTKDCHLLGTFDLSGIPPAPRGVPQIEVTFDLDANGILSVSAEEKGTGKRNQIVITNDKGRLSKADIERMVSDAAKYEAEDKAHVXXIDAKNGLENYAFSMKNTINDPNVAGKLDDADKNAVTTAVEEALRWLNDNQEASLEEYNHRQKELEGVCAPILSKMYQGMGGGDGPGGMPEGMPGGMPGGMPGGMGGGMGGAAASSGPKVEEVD

Row | Structure (SMILES) | IC50 [1, 3] | IC50 [1, 4] | effect of order of addition (compound vs Tbj2) on inhibition of J-stimulated ATPase activity (TbHsp70 / Tbj2) | effect of order of addition (compound vs Tbj2) on inhibition of J-stimulated ATPase activity (TbHsp70.4 / Tbj2) | IC50 [1, 5] | toxicity to HeLa cells [2]
1 | CC(C)=CCC/C(C)=C/Cn1cnc2c1c(=O)[nH]c(=O)n2C/C=C(\C)CCC=C(C)C [Compound 27, 3,7-Bis((E)-3,7-dimethylocta-2,6-dien-1-yl)-3,7-dihydro-1H-purine-2,6-dione] | < 7 µM | 2 µM | no significant difference | no significant difference | – | –
2 | CC(C)=CCC/C(C)=C/CC/C(C)=C/Cn1cnc2c1c(=O)[nH]c(=O)n2C [Compound 31, 3-methyl-7-((2E,6E)-3,7,11-trimethyldodeca-2,6,10-trien-1-yl)-3,7-dihydro-1H-purine-2,6-dione] | < 7 µM | 1.9 µM | no significant difference | no significant difference | 1.91 µM | –
3 | CC(C)=CCC/C(C)=C/Cn1ccc(=N)n(C/C=C(\C)CCC=C(C)C)c1=O [Compound 61, 1,3-bis((E)-3,7-dimethylocta-2,6-dien-1-yl)-4-imino-3,4-dihydropyrimidin-2(1H)-one] | – | – | – | – | – | toxic
4 | CC(C)=CCC/C(C)=C/CCC(C)=CCn1cnc2c1c(=O)[nH]c(=O)n2CC=C(C)CC/C=C(\C)CCC=C(C)C [Compound 28, 3,7-Bis((6E)-3,7,11-trimethyldodeca-2,6,10-trien-1-yl)-3,7-dihydro-1H-purine-2,6-dione] | < 7 µM | 1.2 µM | no significant difference | no significant difference | 1.15 µM | –
5 | CC(C)=CCC/C(C)=C/CCC(C)=CCn1ccc(=N)n(CC=C(C)CC/C=C(\C)CCC=C(C)C)c1=O [Compound 63, 4-imino-1,3-bis((6E)-3,7,11-trimethyldodeca-2,6,10-trien-1-yl)-3,4-dihydropyrimidin-2(1H)-one] | < 7 µM | 2.1 µM | no significant difference | no significant difference | 2.05 µM | –
6 | CC(C)=CCC/C(C)=C/Cn1cnc(=N)c2ncn(C/C=C(\C)CCC=C(C)C)c21 [Compound 5, 3,9-bis((E)-3,7-dimethylocta-2,6-dien-1-yl)-3,9-dihydro-6H-purin-6-imine] | – | – | – | – | – | toxic
7 | CC(C)=CCC/C(C)=C/CC/C(C)=C\Cn1cnc2c1c(=O)[nH]c(=O)n2C [Compound 30, 3-Methyl-7-((2Z,6E)-3,7,11-trimethyldodeca-2,6,10-trien-1-yl)-3,7-dihydro-1H-purine-2,6-dione] | – | 4.6 µM | – | – | 4.62 µM | –
8 | CC(C)=CCC/C(C)=C/Cn1cnc2c(N(C)C)ncnc21 [Compound 9, (E)-9-(3,7-Dimethylocta-2,6-dien-1-yl)-N,N-dimethyl-9H-purin-6-amine] | – | 28.4 µM | – | – | 28.4 µM | –
9 | CC(C)=CCC/C(C)=C/CC/C(C)=C/CC/C(C)=C\Cn1ccc(=O)[nH]c1=O [Compound 56, 1-((2Z,6E,10E)-3,7,11,15-Tetramethylhexadeca-2,6,10,14-tetraen-1-yl)pyrimidine-2,4(1H,3H)-dione] | – | 6.2 µM | – | – | – | –
10 | CC(=O)NC/C=C(/C)CC/C=C(\C)CCC=C(C)C [Compound 82, N-((2Z,6E)-3,7,11-Trimethyldodeca-2,6,10-trien-1-yl)acetamide] | – | 4.5 µM | – | – | 4.49 µM | –
11 | CC(C)=CCC/C(C)=C/CC/C(C)=C/CC/C(C)=C/Cn1cnc2c(N(C)C)ncnc21 [Compound 14, N,N-dimethyl-9-((2E,6E,10E)-3,7,11,15-tetramethylhexadeca-2,6,10,14-tetraen-1-yl)-9H-purin-6-amine] | – | 9.2 µM | – | – | 9.22 µM | –
12 | CC(=O)NC/C=C(/C)CC/C=C(\C)CC/C=C(\C)CCC=C(C)C [Compound 84, N-((2Z,6E,10E)-3,7,11,15-Tetramethylhexadeca-2,6,10,14-tetraen-1-yl)acetamide] | – | 2.2 µM | – | – | 2.17 µM | –
13 | CC(C)=CCC/C(C)=C/CCC(C)=CCn1cnc2c(N)ncnc21 [Compound 7, 9-((6E)-3,7,11-trimethyldodeca-2,6,10-trien-1-yl)-9H-purin-6-amine] | – | 47.7 µM | – | – | 47.7 µM | –
14 | CC(C)=CCC/C(C)=C/CC/C(C)=C/CC/C(C)=C/Cn1cnc2c(N)ncnc21 [Compound 8, 9-((2E,6E,10E)-3,7,11,15-Tetramethylhexadeca-2,6,10,14-tetraen-1-yl)-9H-purin-6-amine] | – | 13.4 µM | – | – | 13.4 µM | –
15 | CC(=O)N(C)C/C=C(\C)CC/C=C(\C)CC/C=C(\C)CCC=C(C)C [Compound 88, N-Methyl-N-((2E,6E,10E)-3,7,11,15-tetramethylhexadeca-2,6,10,14-tetraen-1-yl)acetamide] | – | 38.4 µM | – | – | – | –
16 | CC(C)=CCC/C(C)=C/CC/C(C)=C/CC/C(C)=C\Cn1cnc2c1c(=O)n(C)c(=O)n2C [Compound 36, 1,3-Dimethyl-7-((2Z,6E,10E)-3,7,11,15-tetramethylhexadeca-2,6,10,14-tetraen-1-yl)-3,7-dihydro-1H-purine-2,6-dione] | – | 5.2 µM | – | – | 5.17 µM | –
17 | CC(C)=CCC/C(C)=C/CC/C(C)=C/CC/C(C)=C\CNC=O [Compound 76, N-((2Z,6E,10E)-3,7,11,15-Tetramethylhexadeca-2,6,10,14-tetraen-1-yl)formamide] | – | 11 µM | – | – | 11 µM | –
18 | CC(C)=CCC/C(C)=C/CCC(C)=CCn1ccc(=O)[nH]c1=O [Compound 55, 1-((6E)-3,7,11-Trimethyldodeca-2,6,10-trien-1-yl)pyrimidine-2,4(1H,3H)-dione] | – | 16.5 µM | – | – | 16.5 µM | –
19 | CC(C)=CCC/C(C)=C/CC/C(C)=C/CC/C(C)=C\Cn1cnc2ncnc(Cl)c21 [Compound 21, 6-chloro-7-((2Z,6E,10E)-3,7,11,15-tetramethylhexadeca-2,6,10,14-tetraen-1-yl)-7H-purine] | – | 19.1 µM | – | – | 19.1 µM | –
